# Test results from BindingDB's records for doi:10.1016/j.bmcl.2009.03.136 (Central Drug Research Institute, 2009).
# Assay: Inhibition of rat intestinal alpha-glucosidase
compound,measurement,value
"COc1ccc(C=CC(=O)C[C@@H]2O[C@H](CO)[C@@H](O)[C@H](O)[C@H]2O)cc1OC [(E)-4-(3,4-dimethoxyphenyl)-1-((2S,3R,4R,5S,6R)-3,4,5-trihydroxy-6-(hydroxymethyl)tetrahydro-2H-pyran-2-yl)but-3-en-2-one]",IC50,51.5 µM
